Experimental data published in the supplement of paper PMC10627819.

Tests used:
B. subtilis 168 [1] = experiment: Bliss interaction score (quartile over a dose matrix) (fitness difference); higher = more antagonism (negative = synergy)
Outline: (§1)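 Fitness was derived from optical density at entry into stationary phase, divided by the robust mean of the no-drug wells on the same plate. That reading was taken as OD595, and the ratio was capped at 1. Single-drug fitness was inferred from the combination data. The Bliss score, observed fitness minus the expected product of single-drug fitness, was summarised as quartiles over technical, biological and donor/recipient replicates.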

S. aureus DSM 20231 [2] = experiment: as above
Outline: as §1

S. pneumoniae D39V [3] = experiment: as above
Outline: as §1

S. aureus Newman [4] = experiment: as above
Outline: as §1

B. subtilis 168 [5] = experiment: fitness (endpoint OD595 vs no drug) (fraction); higher = more growth
Outline: (§2)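 Growth medium was TSB, LB Lennox or CY, and plates were kept at 37 °C. Inoculation was at OD595 0.01 in 384-well plates, at 30 µl per well or 55 µl for S. pneumoniae. OD595 was monitored every 30 min for 14 h and background-subtracted using the first reading. Fitness is the optical density on entering stationary phase divided by the robust mean of no-drug controls, with values capped at 1.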

S. aureus DSM 20231 [6] = experiment: as above
Outline: as §2

S. pneumoniae D39V [7] = experiment: as above
Outline: as §2

S. aureus Newman [8] = experiment: as above
Outline: as §2
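Throughout, for Bliss interaction score (quartile over a dose matrix): first quartile when negative (synergy) and third quartile when positive (antagonism).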

O=C(O[C@@H]1Cc2c(O)cc(O)cc2O[C@@H]1c1cc(O)c(O)c(O)c1)c1cc(O)c(O)c(O)c1 [EGCG] + C[n+]1ccc(-c2cc[n+](C)cc2)cc1 [Paraquat]
Conditions	Bliss interaction score
B. subtilis 168 [1]	0.0809
S. aureus DSM 20231 [2]	-0.0973
S. aureus Newman [4]	-0.052
S. pneumoniae D39V [3]	0.0566

fitness
Conditions	first compound 6.25 µg/mL	first compound 12.5 µg/mL	first compound 25 µg/mL	first compound 50 µg/mL
B. subtilis 168 [5], partner 1.25 µg/mL	0.912	–	–	–
B. subtilis 168 [5], partner 2.5 µg/mL	0.918	–	–	–
B. subtilis 168 [5], partner 5 µg/mL	0.836	0.691	–	–
S. aureus DSM 20231 [6], partner 1.25 µg/mL	–	0.792	0.774	–
S. aureus DSM 20231 [6], partner 2.5 µg/mL	–	0.767	0.827	0.609
S. aureus DSM 20231 [6], partner 5 µg/mL	–	0.757	0.733	0.56
S. aureus Newman [8], partner 1.25 µg/mL	–	0.709	0.579	–
S. aureus Newman [8], partner 2.5 µg/mL	–	0.691	0.812	–
S. aureus Newman [8], partner 5 µg/mL	–	–	0.796	0.787
S. pneumoniae D39V [7], partner 1.5 µg/mL	–	0.953	≥ 1	0.952
S. pneumoniae D39V [7], partner 3 µg/mL	–	0.971	0.999	0.839
S. pneumoniae D39V [7], partner 6 µg/mL	–	0.91	≥ 1	≥ 1

O=C(O[C@@H]1Cc2c(O)cc(O)cc2O[C@@H]1c1cc(O)c(O)c(O)c1)c1cc(O)c(O)c(O)c1 [EGCG] + CN1C2=CC=CC=C2N=C3C1=CC=CC3=O [Pyocyanin]
Conditions	Bliss interaction score
B. subtilis 168 [1]	0.187
S. aureus DSM 20231 [2]	-0.114
S. aureus Newman [4]	-0.0806
S. pneumoniae D39V [3]	-0.0423

fitness
Conditions	first compound 6.25 µg/mL	first compound 12.5 µg/mL	first compound 25 µg/mL	first compound 50 µg/mL
B. subtilis 168 [5], partner 1.25 µg/mL	0.81	0.898	–	–
B. subtilis 168 [5], partner 2.5 µg/mL	0.831	0.805	0.638	–
B. subtilis 168 [5], partner 5 µg/mL	0.662	0.645	0.485	–
S. aureus DSM 20231 [6], partner 1.25 µg/mL	–	0.677	0.689	–
S. aureus DSM 20231 [6], partner 2.5 µg/mL	–	0.693	0.682	0.624
S. aureus DSM 20231 [6], partner 5 µg/mL	–	0.555	0.56	0.492
S. aureus Newman [8], partner 1.25 µg/mL	–	0.679	0.616	–
S. aureus Newman [8], partner 2.5 µg/mL	–	0.647	0.548	–
S. aureus Newman [8], partner 5 µg/mL	–	0.403	0.409	0.315
S. pneumoniae D39V [7], partner 0.325 µg/mL	–	0.986	≥ 1	≥ 1
S. pneumoniae D39V [7], partner 0.65 µg/mL	–	0.976	0.98	0.925
S. pneumoniae D39V [7], partner 1.3 µg/mL	–	0.638	0.628	0.75

O=C(O[C@@H]1Cc2c(O)cc(O)cc2O[C@@H]1c1cc(O)c(O)c(O)c1)c1cc(O)c(O)c(O)c1 [EGCG] + C[C@@H]1O[C@@H]1P(=O)(O)O [Fosfomycin]
Conditions	Bliss interaction score
B. subtilis 168 [1]	0.144
S. aureus DSM 20231 [2]	-0.113
S. aureus Newman [4]	0.101
S. pneumoniae D39V [3]	0.0738

fitness
Conditions	first compound 6.25 µg/mL	first compound 12.5 µg/mL	first compound 25 µg/mL	first compound 50 µg/mL
B. subtilis 168 [5], partner 1.562 µg/mL	0.682	–	–	–
B. subtilis 168 [5], partner 3.124 µg/mL	0.562	–	0.396	–
B. subtilis 168 [5], partner 6.248 µg/mL	0.448	0.439	0.25	–
S. aureus DSM 20231 [6], partner 0.781 µg/mL	–	0.583	0.541	0.402
S. aureus DSM 20231 [6], partner 1.562 µg/mL	–	0.459	0.465	–
S. aureus DSM 20231 [6], partner 3.124 µg/mL	–	0.416	0.399	0.23
S. aureus Newman [8], partner 0.781 µg/mL	–	0.494	0.573	0.548
S. aureus Newman [8], partner 1.562 µg/mL	–	0.542	0.502	0.48
S. aureus Newman [8], partner 3.124 µg/mL	–	0.251	0.219	0.185
S. pneumoniae D39V [7], partner 1.25 µg/mL	–	0.965	0.913	0.969
S. pneumoniae D39V [7], partner 2.5 µg/mL	–	0.948	0.936	0.856
S. pneumoniae D39V [7], partner 5 µg/mL	–	0.774	0.796	0.854

COc1c(N2C[C@@H]3CCCN[C@@H]3C2)c(F)cc2c(=O)c(C(=O)O)cn(C3CC3)c12 [Moxifloxacin] + COc1ccc(C[C@H](N)C(=O)N[C@H]2[C@@H](O)[C@H](n3cnc4c(N(C)C)ncnc43)O[C@@H]2CO)cc1 [Puromycin]
Conditions	Bliss interaction score
B. subtilis 168 [1]	-0.0157
S. aureus DSM 20231 [2]	-0.0292
S. aureus Newman [4]	0.0443
S. pneumoniae D39V [3]	0.101

fitness
Conditions	partner 0.39 µg/mL	partner 0.78 µg/mL	partner 1 µg/mL	partner 1.56 µg/mL	partner 2 µg/mL	partner 4 µg/mL
B. subtilis 168 [5], first compound 0.0312 µg/mL	0.0423	0.0567	–	0.053	–	–
B. subtilis 168 [5], first compound 0.0625 µg/mL	0.0666	0.0602	–	0.0585	–	–
B. subtilis 168 [5], first compound 0.125 µg/mL	0.0451	0.045	–	0.0653	–	–
B. subtilis 168 [5], first compound 2 µg/mL	0.0227	0.028	–	0.0306	–	–
B. subtilis 168 [5], first compound 4 µg/mL	0.021	0.0248	–	0.0303	–	–
B. subtilis 168 [5], first compound 8 µg/mL	0.009	0.0168	–	0.0189	–	–
S. aureus DSM 20231 [6], first compound 0.0075 µg/mL	0.885	0.928	–	0.861	–	–
S. aureus DSM 20231 [6], first compound 0.015 µg/mL	0.789	0.846	–	0.802	–	–
S. aureus DSM 20231 [6], first compound 0.03 µg/mL	0.681	0.695	–	0.668	–	–
S. aureus Newman [8], first compound 0.0075 µg/mL	0.797	0.757	–	0.817	–	–
S. aureus Newman [8], first compound 0.015 µg/mL	0.673	0.657	–	0.658	–	–
S. aureus Newman [8], first compound 0.03 µg/mL	0.119	0.161	–	0.282	–	–
S. pneumoniae D39V [7], first compound 0.005 µg/mL	–	–	≥ 1	–	≥ 1	0.885
S. pneumoniae D39V [7], first compound 0.01 µg/mL	–	–	≥ 1	–	0.982	0.88
S. pneumoniae D39V [7], first compound 0.02 µg/mL	–	–	1	–	0.985	0.88

one replicate
Conditions	fitness
S. aureus DSM 20231 [6], first compound 0.0075 µg/mL, partner 3.12 µg/mL	0.779
S. aureus DSM 20231 [6], first compound 0.0075 µg/mL, partner 6.24 µg/mL	0.642
S. aureus DSM 20231 [6], first compound 0.015 µg/mL, partner 3.12 µg/mL	0.787
S. aureus DSM 20231 [6], first compound 0.015 µg/mL, partner 6.24 µg/mL	0.509
S. aureus DSM 20231 [6], first compound 0.03 µg/mL, partner 3.12 µg/mL	0.754
S. aureus DSM 20231 [6], first compound 0.03 µg/mL, partner 6.24 µg/mL	0.547
S. aureus DSM 20231 [6], first compound 0.06 µg/mL, partner 0.39 µg/mL	0.676
S. aureus DSM 20231 [6], first compound 0.06 µg/mL, partner 0.78 µg/mL	0.7
S. aureus DSM 20231 [6], first compound 0.06 µg/mL, partner 1.56 µg/mL	0.687
S. aureus DSM 20231 [6], first compound 0.12 µg/mL, partner 0.39 µg/mL	0.48
S. aureus DSM 20231 [6], first compound 0.12 µg/mL, partner 0.78 µg/mL	0.482
S. aureus DSM 20231 [6], first compound 0.12 µg/mL, partner 1.56 µg/mL	0.558
S. pneumoniae D39V [7], first compound 0.0037 µg/mL, partner 1 µg/mL	0.502
S. pneumoniae D39V [7], first compound 0.0037 µg/mL, partner 2 µg/mL	0.431
S. pneumoniae D39V [7], first compound 0.0037 µg/mL, partner 4 µg/mL	0.342
S. pneumoniae D39V [7], first compound 0.0075 µg/mL, partner 1 µg/mL	0.846
S. pneumoniae D39V [7], first compound 0.0075 µg/mL, partner 2 µg/mL	0.82
S. pneumoniae D39V [7], first compound 0.0075 µg/mL, partner 4 µg/mL	0.77
S. pneumoniae D39V [7], first compound 0.015 µg/mL, partner 1 µg/mL	0.935
S. pneumoniae D39V [7], first compound 0.015 µg/mL, partner 2 µg/mL	0.798
S. pneumoniae D39V [7], first compound 0.015 µg/mL, partner 4 µg/mL	0.763
